Experimental data taken from patent US20230150995A1, “HETEROARYL-METHYL SUBSTITUTED TRIAZOLES” (Hoffmann-La Roche Inc., priority 2020, published 2023).

These compounds were tested against T1, human V1a receptor (Homo sapiens, UniProt P37288) (assay: human V1a receptor binding study (3H-Vasopressin SPA, HEK293 membranes)). Settings: membranes of HEK293 cells transiently transfected with human V1a receptor, Ki by Cheng-Prusoff, read-out: pKi (hV1a) (converted).
T1 construct: expressed in transfected cells; host or cells: HEK293 cells, transiently transfected; cell membranes
Description: The human V1a receptor was cloned by RT-PCR from total human liver RNA. The coding sequence was subcloned in an expression vector after sequencing to confirm the identity of the amplified sequence. […] Cell membranes were prepared from HEK293 cells transiently transfected with the expression vector and grown in 20 liter fermenters with the following protocol.
50 g of cells are re-suspended in 30 ml freshly prepared ice cold Lysis buffer (50 mM HEPES, 1 mM EDTA, 10 mM MgCl2 adjusted to pH=7.4+complete cocktail of protease inhibitor (Roche Diagnostics)). Homogenized with Polytron for 1 min and sonicated on ice for 2× 2 minutes at 80% intensity (Vibracell sonicator). The preparation is centrifuged 20 min at 500 g at 4° C., the pellet is discarded and the supernatant centrifuged 1 hour at 43′000 g at 4° C. (19′000 rpm). The pellet is re-suspended in 12.5 ml Lysis buffer+12.5 ml Sucrose 20% and homogenized using a Polytron for 1-2 min. The protein concentration is determined by the Bradford method and aliquots are stored at −80° C. until use. For binding studies 60 mg Yttrium silicate SPA beads (Amersham) are mixed with an aliquot of membrane in binding buffer (50 mM Tris, 120 mM NaCl, 5 mM KCl, 2 mM CaCl2, 10 mM MgCl2) for 15 minutes with mixing. 50 μl of bead/membrane mixture is then added to each well of a 96 well plate, followed by 50 μl of 4 nM 3H-Vasopressin (American Radiolabeled Chemicals). For total binding measurement 100 μl of binding buffer are added to the respective wells, for non-specific binding 100 μl of […] cold vasopressin and for compound testing 100 μl of a serial dilution of each compound in 2% DMSO. The plate is incubated 1 h at room temperature, centrifuged […] at 1000 g and counted on a Packard Top-Count. Non-specific binding counts are subtracted from each well and data is normalized to the maximum specific binding set at 100%. To calculate an IC 50 the curve is fitted using a non-linear regression model (XLfit) and the Ki is calculated using the Cheng-Prussoff equation.

T1 sequence (P37288 whole entry): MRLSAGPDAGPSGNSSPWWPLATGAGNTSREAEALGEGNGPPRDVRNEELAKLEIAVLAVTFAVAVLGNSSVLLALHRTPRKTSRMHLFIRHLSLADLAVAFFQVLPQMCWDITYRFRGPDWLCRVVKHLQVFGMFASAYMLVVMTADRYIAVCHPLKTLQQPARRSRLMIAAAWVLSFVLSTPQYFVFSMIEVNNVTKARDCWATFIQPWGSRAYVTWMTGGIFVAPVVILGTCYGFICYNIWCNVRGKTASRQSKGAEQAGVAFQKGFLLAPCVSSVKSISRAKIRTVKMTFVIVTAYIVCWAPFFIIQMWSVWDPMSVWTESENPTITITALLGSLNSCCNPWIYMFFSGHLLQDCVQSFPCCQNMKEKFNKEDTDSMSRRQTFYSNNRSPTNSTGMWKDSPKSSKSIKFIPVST

Ki	SMILES
3.63 nM	Clc1ccc(-n2c(Cn3ccnn3)nnc2[C@H]2CC[C@H](Oc3ccccn3)CC2)cc1 [Example 7, trans-2-[4-[4-(4-Chlorophenyl)-5-(triazol-1-ylmethyl)-1,2,4-triazol-3-yl]cyclohexyl]oxypyridine]
3.63 nM	Clc1ccc(-n2c(Cn3ccnc3)nnc2[C@H]2CC[C@H](Oc3ccccn3)CC2)cc1 [Example 8, trans-2-[4-[4-(4-Chlorophenyl)-5-(imidazol-1-ylmethyl)-1,2,4-triazol-3-yl]cyclohexyl]oxypyridine]
7.94 nM	Clc1ccc(-n2c(Cn3cncn3)nnc2[C@H]2CC[C@H](Oc3ccccn3)CC2)cc1 [Example 9, trans-2-[4-[4-(4-Chlorophenyl)-5-(1,2,4-triazol-1-ylmethyl)-1,2,4-triazol-3-yl]cyclohexyl]oxypyridine]
9.12 nM	Clc1ccc(-n2c(Cn3cnnn3)nnc2[C@H]2CC[C@H](Oc3ccccn3)CC2)cc1 [Example 10, trans-2-[4-[4-(4-Chlorophenyl)-5-(tetrazol-1-ylmethyl)-1,2,4-triazol-3-yl]cyclohexyl]oxypyridine]

Second part, the compound before the results:

SMILES	Ki
Cc1cc(Cc2nnc([C@H]3CC[C@H](Oc4ccccn4)CC3)n2-c2ccc(Cl)cc2)no1 [Example 1, trans-3-[[4-(4-Chlorophenyl)-5-(4-pyridin-2-yloxycyclohexyl)-1,2,4-triazol-3-yl]methyl]-5-methyl-1,2-oxazole]	0.17 nM
Clc1ccc(-n2c(Cc3ccon3)nnc2[C@H]2CC[C@H](Oc3ccccn3)CC2)cc1 [Example 2, trans-3-[[4-(4-Chlorophenyl)-5-(4-pyridin-2-yloxycyclohexyl)-1,2,4-triazol-3-yl]methyl]-1,2-oxazole]	0.229 nM
Clc1ccc(-n2c(Cc3ccno3)nnc2[C@H]2CC[C@H](Oc3ccccn3)CC2)cc1 [Example 3, trans-5-[[4-(4-Chlorophenyl)-5-(4-pyridin-2-yloxycyclohexyl)-1,2,4-triazol-3-yl]methyl]-1,2-oxazole]	0.229 nM
Clc1ccc(-n2c(Cn3cccn3)nnc2[C@H]2CC[C@H](Oc3ccccn3)CC2)cc1 [Example 4, trans-2-[4-[4-(4-Chlorophenyl)-5-(pyrazol-1-ylmethyl)-1,2,4-triazol-3-yl]cyclohexyl]oxypyridine]	0.347 nM
Clc1ccc(-n2c(Cn3nccn3)nnc2[C@H]2CC[C@H](Oc3ccccn3)CC2)cc1 [Example 5, trans-2-[4-[4-(4-Chlorophenyl)-5-(triazol-2-ylmethyl)-1,2,4-triazol-3-yl]cyclohexyl]oxypyridine]	0.151 nM
Clc1ccc(-n2c(Cn3nccn3)nnc2[C@H]2CC[C@@H](Oc3ccccn3)CC2)cc1 [Example 6, cis-2-[4-[4-(4-Chlorophenyl)-5-(triazol-2-ylmethyl)-1,2,4-triazol-3-yl]cyclohexyl]oxypyridine]	0.871 nM
